Numbering of substitutions follows the chain as printed.
How the values were obtained:
[1] = target: T1, ASK1-TIR1-IAA6 co-receptor complex (TIR1-IAA6) (Arabidopsis thaliana, UniProt Q38824+Q570C0); assay: homologous competition radioligand binding
T1 construct: ASK1-TIR1 from insect cells (Sf9 or Hi5), purified; IAA6 N-terminally GST-tagged from E. coli, full length; with SKP1-like protein 1A
T1 sequence (Q570C0 1-594): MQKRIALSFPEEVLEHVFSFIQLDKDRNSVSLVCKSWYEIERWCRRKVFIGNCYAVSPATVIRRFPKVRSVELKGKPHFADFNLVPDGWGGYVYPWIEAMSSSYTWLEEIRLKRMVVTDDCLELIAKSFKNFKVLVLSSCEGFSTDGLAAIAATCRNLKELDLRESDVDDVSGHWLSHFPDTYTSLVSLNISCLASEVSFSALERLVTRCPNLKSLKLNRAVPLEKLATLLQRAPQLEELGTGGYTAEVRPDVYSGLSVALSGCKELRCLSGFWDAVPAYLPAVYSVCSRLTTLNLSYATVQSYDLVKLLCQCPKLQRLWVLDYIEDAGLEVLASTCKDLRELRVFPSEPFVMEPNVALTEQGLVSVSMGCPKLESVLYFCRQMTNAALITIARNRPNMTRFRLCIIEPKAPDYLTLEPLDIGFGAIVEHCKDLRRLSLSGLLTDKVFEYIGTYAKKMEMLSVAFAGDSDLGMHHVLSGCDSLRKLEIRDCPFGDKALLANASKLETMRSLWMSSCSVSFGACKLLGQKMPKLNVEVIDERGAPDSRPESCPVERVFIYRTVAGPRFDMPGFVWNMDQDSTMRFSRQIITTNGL
T1 sequence (Q38824 1-189): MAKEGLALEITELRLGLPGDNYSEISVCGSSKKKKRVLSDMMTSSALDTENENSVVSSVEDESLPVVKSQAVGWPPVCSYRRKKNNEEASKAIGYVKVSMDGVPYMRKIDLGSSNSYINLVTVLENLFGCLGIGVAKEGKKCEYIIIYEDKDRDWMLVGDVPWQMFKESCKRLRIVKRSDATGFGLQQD
T1 sequence (Q39255 1-160 partner): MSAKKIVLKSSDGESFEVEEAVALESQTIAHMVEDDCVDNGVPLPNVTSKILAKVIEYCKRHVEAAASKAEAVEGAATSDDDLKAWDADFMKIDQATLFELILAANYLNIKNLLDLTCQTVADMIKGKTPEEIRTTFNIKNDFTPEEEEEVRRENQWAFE

[2] = target: T1, ASK1-TIR1-IAA6 co-receptor complex (TIR1-IAA6); assay: homologous competition radioligand binding; conditions: unlabelled IAA against 50 nM [3H]IAA
[3] = target: T2, AFB2-IAA19 (yeast two-hybrid) (Arabidopsis thaliana, UniProt O24409+Q9LW29); assay: yeast two-hybrid, beta-galactosidase reporter; format: cell-based; conditions: auxin-dependent association in yeast; low micromolar IAA
T2 construct: LexA DBD-AFB2 and AD-IAA19 fusions in yeast diploids
T2 sequence (Q9LW29 1-575): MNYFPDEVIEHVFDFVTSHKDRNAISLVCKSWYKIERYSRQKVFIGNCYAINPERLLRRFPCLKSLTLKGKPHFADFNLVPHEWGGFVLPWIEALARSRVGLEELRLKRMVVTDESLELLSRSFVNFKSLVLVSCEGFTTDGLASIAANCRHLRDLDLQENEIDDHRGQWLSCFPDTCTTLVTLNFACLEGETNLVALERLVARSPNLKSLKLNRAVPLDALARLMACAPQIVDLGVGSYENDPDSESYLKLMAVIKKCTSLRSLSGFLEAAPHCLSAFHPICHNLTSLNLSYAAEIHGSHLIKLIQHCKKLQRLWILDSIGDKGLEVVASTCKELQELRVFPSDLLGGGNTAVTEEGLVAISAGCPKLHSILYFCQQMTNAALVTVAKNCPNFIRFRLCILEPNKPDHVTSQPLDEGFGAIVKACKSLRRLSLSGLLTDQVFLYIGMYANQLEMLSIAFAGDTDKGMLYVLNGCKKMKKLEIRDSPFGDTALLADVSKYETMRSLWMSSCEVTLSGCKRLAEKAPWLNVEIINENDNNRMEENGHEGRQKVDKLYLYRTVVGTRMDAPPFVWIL
T2 sequence (O24409 1-197): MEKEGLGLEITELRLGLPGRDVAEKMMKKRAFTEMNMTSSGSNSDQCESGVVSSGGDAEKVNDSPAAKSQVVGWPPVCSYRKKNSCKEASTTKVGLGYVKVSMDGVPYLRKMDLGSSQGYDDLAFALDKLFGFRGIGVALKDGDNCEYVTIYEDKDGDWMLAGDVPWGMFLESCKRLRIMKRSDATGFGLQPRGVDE

[4] = target: T3, ASK1-TIR1-IAA6 co-receptor complex (TIR1-IAA6) (Arabidopsis thaliana, UniProt Q38824+Q570C0, Q38824:C78R); assay: one-point [3H]IAA saturation binding; conditions: labelled compound; 200 nM [3H]IAA; shy1-1 degron mutant
T3 construct: ASK1-TIR1 from insect cells (Sf9 or Hi5), purified; IAA6 N-terminally GST-tagged from E. coli, full length; with SKP1-like protein 1A
T3 sequence (Q570C0 1-594): T1 sequence (Q570C0 1-594)
T3 sequence (Q38824 1-189 C78R): T1 sequence (Q38824 1-189) with C78R
T3 sequence (Q39255 1-160 partner): T1 sequence (Q39255 1-160 partner)

[5] = target: T1, ASK1-TIR1-IAA6 co-receptor complex (TIR1-IAA6); assay: [3H]IAA saturation radioligand binding
[6] = target: T4, AFB1-IAA19 (yeast two-hybrid) (Arabidopsis thaliana, UniProt O24409+Q9ZR12); assay: yeast two-hybrid, beta-galactosidase reporter; format: cell-based; conditions: auxin-dependent association in yeast; low micromolar IAA
T4 construct: gene GRH1; LexA DBD-AFB1 and AD-IAA19 fusions in yeast diploids
T4 sequence (Q9ZR12 1-585): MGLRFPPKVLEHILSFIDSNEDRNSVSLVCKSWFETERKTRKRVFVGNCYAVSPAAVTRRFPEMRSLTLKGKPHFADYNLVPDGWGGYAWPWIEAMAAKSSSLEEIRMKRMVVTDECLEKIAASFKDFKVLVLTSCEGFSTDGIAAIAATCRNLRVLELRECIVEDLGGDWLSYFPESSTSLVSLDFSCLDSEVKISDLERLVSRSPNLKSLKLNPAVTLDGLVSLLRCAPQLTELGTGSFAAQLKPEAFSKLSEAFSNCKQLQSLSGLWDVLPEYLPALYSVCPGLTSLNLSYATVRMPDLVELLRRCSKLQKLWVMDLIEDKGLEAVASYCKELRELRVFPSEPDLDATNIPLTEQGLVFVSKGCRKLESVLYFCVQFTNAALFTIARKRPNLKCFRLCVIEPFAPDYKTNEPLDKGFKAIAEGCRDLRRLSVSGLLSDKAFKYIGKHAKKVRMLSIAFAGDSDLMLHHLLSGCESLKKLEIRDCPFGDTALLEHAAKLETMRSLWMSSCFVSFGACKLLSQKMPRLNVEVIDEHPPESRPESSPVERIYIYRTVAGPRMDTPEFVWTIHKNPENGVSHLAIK
T4 sequence (O24409 1-197): T2 sequence (O24409 1-197)

[7] = target: T5, ASK1-TIR1-IAA19 co-receptor complex (TIR1-IAA19) (Arabidopsis thaliana, UniProt O24409+Q570C0); assay: homologous competition radioligand binding
T5 construct: ASK1-TIR1 from insect cells (Sf9 or Hi5), purified; IAA19 N-terminally GST-tagged from E. coli, full length; with SKP1-like protein 1A
T5 sequence (Q570C0 1-594): T1 sequence (Q570C0 1-594)
T5 sequence (O24409 1-197): T2 sequence (O24409 1-197)
T5 sequence (Q39255 1-160 partner): T1 sequence (Q39255 1-160 partner)

[8] = target: T6, AFB2-IAA6 (yeast two-hybrid) (Arabidopsis thaliana, UniProt Q38824+Q9LW29); assay: yeast two-hybrid, beta-galactosidase reporter; format: cell-based; conditions: auxin-dependent association in yeast; low micromolar IAA
T6 construct: LexA DBD-AFB2 and AD-IAA6 fusions in yeast diploids
T6 sequence (Q9LW29 1-575): T2 sequence (Q9LW29 1-575)
T6 sequence (Q38824 1-189): T1 sequence (Q38824 1-189)

[9] = target: T7, ASK1-TIR1-IAA19 co-receptor complex (TIR1-IAA19) (Arabidopsis thaliana, UniProt O24409+Q570C0, O24409:P76S); assay: one-point [3H]IAA saturation binding; conditions: labelled compound; 200 nM [3H]IAA; msg2-1 degron mutant
T7 construct: ASK1-TIR1 from insect cells (Sf9 or Hi5), purified; IAA19 N-terminally GST-tagged from E. coli, full length; with SKP1-like protein 1A
T7 sequence (Q570C0 1-594): T1 sequence (Q570C0 1-594)
T7 sequence (O24409 1-197 P76S): T2 sequence (O24409 1-197) with P76S
T7 sequence (Q39255 1-160 partner): T1 sequence (Q39255 1-160 partner)

[10] = target: T5, ASK1-TIR1-IAA19 co-receptor complex (TIR1-IAA19); assay: homologous competition radioligand binding; conditions: unlabelled IAA against 25 nM [3H]IAA
[11] = target: T8, AFB1-IAA6 (yeast two-hybrid) (Arabidopsis thaliana, UniProt Q38824+Q9ZR12); assay: yeast two-hybrid, beta-galactosidase reporter; format: cell-based; conditions: auxin-dependent association in yeast; low micromolar IAA
T8 construct: gene GRH1; LexA DBD-AFB1 and AD-IAA6 fusions in yeast diploids
T8 sequence (Q9ZR12 1-585): T4 sequence (Q9ZR12 1-585)
T8 sequence (Q38824 1-189): T1 sequence (Q38824 1-189)

[12] = target: T5, ASK1-TIR1-IAA19 co-receptor complex (TIR1-IAA19); assay: [3H]IAA saturation radioligand binding

SMILES: O=C(O)Cc1c[nH]c2ccccc12 [IAA]
- Ki [1]: 0.0993 ± 0.0119 µM
- IC50 [2]: determined IC50 and Ki values for each of the complexes
- yeast two-hybrid, beta-galactosidase reporter [3]: IAA6 and IAA19 interacted in an auxin-dependent manner with TIR1, AFB1 and AFB2
- specific binding at 200 nM [4]: IAA6^C78R/shy1-1 and IAA19^P76S/msg2-1 mutants that mimic stabilized version of the proteins affect significantly
- Kd [5]: 0.072 ± 0.0105 µM
- yeast two-hybrid, beta-galactosidase reporter [6]: IAA6 and IAA19 interacted in an auxin-dependent manner with TIR1, AFB1 and AFB2
- Ki [7]: 0.0335 ± 0.0037 µM
- yeast two-hybrid, beta-galactosidase reporter [8]: IAA6 and IAA19 interacted in an auxin-dependent manner with TIR1, AFB1 and AFB2
- specific binding at 200 nM [9]: IAA6^C78R/shy1-1 and IAA19^P76S/msg2-1 mutants that mimic stabilized version of the proteins affect significantly
- IC50 [10]: determined IC50 and Ki values for each of the complexes
- yeast two-hybrid, beta-galactosidase reporter [11]: IAA6 and IAA19 interacted in an auxin-dependent manner with TIR1, AFB1 and AFB2
- Kd [12]: 0.0156 ± 0.002 µM
